In patent US20240415120A1, “BINARY BIOHERBICIDE COMPRISING PELARGONIC ACID” (YPF TECNOLOGÍA S.A., priority 2023, published 2024):

Columns and labels:
[1] = system: seedlings of A. hybridus; test: Early post-emergence damage to photosystem II (Fv/Fm fluorometry); type: in vivo, Amaranthus hybridus; settings: 5 mM
Protocol: • Plant material and culturing conditions Seeds of Amaranthus hybridus were sown on plastic boxes of 15.5×11×4 cm with moist absorbing paper (25 seeds per box). The boxes were placed in a culture chamber at 22° C. and 50 μmol photons m^−2 s^−1 with a photoperiod of 16 hours. […] The application volume for each treatment was 10 ml per box on the absorbing paper. After 7 days post-application, to avoid possible chlorosis symptoms due to a lack of nutrients, 5 ml of nutritive solution were added to each box, with the following formulation: 5.0 mM Ca(NO3)2, 5.0 mM KNO3, 2.0 mM MgSO4, 1.0 mM KH2PO4, 20.0 μM FeNaEDTA, 5.0 μM H3BO3, 0.9 μM MnCl2, 0.8 μM ZnCl2, 0.3 μM CuSO4 y 0.01 μM Na2MoO4, pH 5.5-6.5. The experiments were finished 12 days post-application.
The tested formulations were F1 and F2, both at 5 mM. […]
The objective was to assess the early post-emergence effect of the tested formulations on seedlings of A. hybridus of 7 days post-sowing. At 1, 2, 5, 7 and 12 days post-application the fluorometry measurements (Fv/Fm) were carried out to ascertain the damage to photosystem II, and the plants with bleaching or chlorosis symptoms were counted. […]
For the experiments, three boxes per treatment were used: both experiments had 5 treatments. Each experiment was repeated 3 times (assays 1, 2 and 3), and each assay was analyzed separately. […]

[2] = system: Pseudomonas monteilii; test: Effect on growth-promoting bacteria in liquid culture; type: cell-based; settings: C + N 5 mM combined; F3, F4, F5 0.5% v/v; atrazine 5 mM; LB medium, 32° C.; Gompertz model
Protocol: To evaluate the effect of the compositions prepared in Example 6 on growth-promoting bacteria, a model strain of Pseudomonas monteilii was used. The microorganism was inoculated in liquid LB medium (initial optical density at 600 nm=0.1), and incubated in Erlenmeyer flasks at 32° C., 180 rpm. The effect of the active compounds (citral (C)+pelargonic acid (N), at a combined concentration of 5 mM), F3, F4 and F5 (all three at 0.5% v/v) and atrazine (5 mM) was assessed by adding each treatment to the culture medium at the moment of inoculation. The positive growth control was performed without adding any compound. Liquid samples were taken during the growth, and the biomass of the cultures was evaluated using the drop plate method described by Herigstad et al. (2001). Three repetitions were carried out in different times and the results were analyzed with the software Statistica (StatSoft, 2007) to adjust them to the Gompertz model, and thus calculate the growth parameters.

[3] = system: Solanum lycopersicum; test: Pre-emergence germination assay in Petri dishes; type: in vivo; settings: 168 h, S. lycopersicum, after 7 days of exposure, combined concentration of both active ingredients, read-out: Germination IC50 (Confidence limit 95%)
Protocol: (§1) Aqueous extracts containing binary mixtures of formulations: F1 (citral+pelargonic acid) and F2 (thymoquinone+pelargonic acid), in both cases with a 1:1 ratio between the active compounds and with the addition of an emulsifier (soy lecithin at 35% w/w, YPF Agro, 2022) at 0.2% v/v, were tested in Petri dishes following the methodology disclosed in U.S. Pat. No. 11,083,197, with some modifications. […] The extracts were placed onto 9-cm diameter paper disks in Petri dishes. Then, ten seeds of each species were placed onto paper disks. Subsequently, the dishes were closed under the following experimental conditions: room temperature, 26.0±1.8° C.; relative humidity, 50±9.7%; and photoperiod, 12:12. The seeds were considered germinated if their roots were longer than 1 mm. Aqueous extracts without the addition of the bioactive formulation were used as negative control, whereas atrazine was used as positive control. The assays were performed in triplicates for each concentration.
(§2) The IC50 were obtained using the software POLO PLUS (LeOra Software Company).
(§3) An aqueous extract comprising the emulsifier used in Example 1 at 0.2% w/w was prepared and seeds of different species were exposed to the extract following a methodology as the one used in Example 1. Pure water was used as a negative control.

[4] = system: Amaranthus hybridus; test: Pre-emergence germination assay in Petri dishes; type: in vivo; settings: 168 h, A. hybridus, after 7 days of exposure, combined concentration of both active ingredients, read-out: Germination IC50 (Confidence limit 95%)
Protocol: as §1, §2, §3

[5] = system: Lolium multiflorum; test: Pre-emergence germination assay in Petri dishes; type: in vivo; settings: 168 h, L. multiflorum, after 7 days of exposure, combined concentration of both active ingredients, read-out: Germination IC50 (Confidence limit 95%)
Protocol: as §1, §2, §3

CCNc1nc(Cl)nc(NC(C)C)n1 [Atrazine, atrazine]
Course of Fv/Fm values ([1]; day 1 to 12 days post-application): gradual fall in the Fv/Fm values from day 1 until reaching minimum or non-measurable values at 12 days | Effects on photosystem II in comparison to treatments F1 and F2 ([1]; every assay): lower effects | Duplication time [2]: 22.03 min | Lag pase length [2]: 1.3 h | maximum growth rate μmax [2]: 1.89 h⁻¹ | IC50 [3]: 37.5 mM | IC50 [4]: 41 mM | IC50 [5]: 39 mM
